Where a SMILES comes first, the peptide text is derived from it. The star is where a group is joined. MeOSuc = COC(=O)CCC(=O)*; CH2Cl = ClC*
How the values were obtained:
PC12 cells = experiment: KCN-induced necrosis of PC12 cells, LDH release; type: cell-based, rat; settings: for KCN-induced necrotic cell death assessed by LDH release: PC12, KCN 5 hours, FIGS. 6, 7A-B; for inhibition at 0.0001 µM / inhibition at 0.001 µM / inhibition at 0.01 µM / inhibition at 0.1 µM / inhibition at 1 µM: Rattus norvegicus, PC-12, 5 h, KCN, PC12, LDH release (Table 5); for inhibition at 0.0001 µM / % protection at indicated concentration 0.1 nM: 0.1 nM; for inhibition at 0.0001 µM: read-out: % protection at 0.1 nM; for inhibition at 0.001 µM / % protection at indicated concentration 1 nM: 1 nM; for inhibition at 0.001 µM: read-out: % protection at 1 nM; for inhibition at 0.01 µM / % protection at indicated concentration 10 nM: 10 nM; for inhibition at 0.01 µM: read-out: % protection At 10 nM; for inhibition at 0.1 µM: read-out: % protection at 0.1 μM; for inhibition at 1 µM: read-out: % protection at 1 μM; for % protection at indicated concentration 0.1 nM / % protection at indicated concentration 1 nM / % protection at indicated concentration 10 nM / % protection at indicated concentration 100 nM / % protection at indicated concentration 1 μM: KCN-induced necrosis (Table 2)
Procedure: The rat pheochromocytoma PC12 cell line was propagated in DMEM medium (Beit Haemek, Israel), supplemented with 5% heat-inactivated calf serum, 10% heat-inactivated horse serum, 2 mM L-glutamine, 100 U/ml penicillin and 100 μg/ml streptomycin. PC12 cells in logarithmic phase were seeded at a concentration of 1.2×10^5/well in 96-well plates and incubated overnight.
Thereafter, the cells were washed twice and maintained in RPMI-1640 (U-937cells) and DMEM (PC-12 cells) glucose-free medium, supplemented with 2 mM pyruvate and 10% dialyzed FCS for one hour. Then cells were treated with or without KCN (Merck, Germany) at the indicated concentrations for 7 hours (U-937 cells), or for 5 hours (PC12 cells).
Elastase inhibitors II (MeOSuc-AAPA-CMK) and elastase inhibitor III (MeOSuc-AAPV-CMK) were purchased from Calbiochem-Novabiochem, USA. Compound Gly-Phe diazomethylketone was purchased from MP Biomedicals, USA. All the compounds disclosed in Table 1 hereinabove were purchased from ChemDiv, San Diego, CA. The compounds were dissolved in DMSO and were administered 30 min before addition of the cell death inducer. The final concentration of DMSO, added to all samples, was 0.1%, which had no effect by itself siRNA and cell transfection
The amount of LDH released from lysed cells is a sensitive measure of cell death. Necrotic cell death was measured in 96-well plates using Promega CytoTox 96 LDH assay kit. LDH content from the cells lysed in 0.1% Triton X-100 for 10 min was used as an index of total LDH. The LDH released in culture medium was used as an index of necrotic cell death and the percentage from total LDH was calculated. The protection by the inhibitor was calculated based on comparing percentage of LDH release in the presence and in the absence of the inhibitor. The inhibitors were also added to totals, blanks and controls. Absorbance at 490 nm was measured by ELISA reader (BioTec).
These compounds were tested for their ability to inhibit necrosis induced by KCN in PC12 cells. The necrotic mode of cell death in this system was validated as previously described. PC12 cells were challenged with KCN as described above. The protective results of the compounds against KCN-induced necrosis assessed using LDH release method are shown below in Table 5. The IC50 values of these inhibitors is in the range of tens to single nanomolar.

elastase-like activity = experiment: Elastase-like activity in lysates of KCN-treated U-937 cells (MAAPV substrate); type: biochemical, human
[1] = test system: C57BL/6J mice, closed head trauma; experiment: Closed head injury (traumatic brain injury) in mice; type: in vivo, mouse
Procedure: The closed head injury method was used to determine the effect of the elastase inhibitor on the development of brain necrosis and on the neurological status assessed using the neurological severity score (NSS). NSS test was performed 1 hour after trauma. During NSS test, various reflexes, ability to move, beam balance, beam walk and other behavior parameters like seeking and exiting from a cycle were monitored. Development of necrosis was measured by assessing necrotic space in brain slices stained with 2,3,5-triphenyl-2H-tetrazolium chloride (TTC).
C57BL/6J mice weighing 40+4 g (mean±SD) were used in the study. A weight-drop device was used to deliver a shock to the scull resulting in a controlled cerebral injury. Impact was delivered by a silicone-coated 5 mm metal tip extruding from a platform that falls down a frame. This model of cranial injury has been used in previous studies [Feldman Z et al., J Neurosurg (1995) 83:1060-1066; Shapira Y et al., J Neurosurg Anesthesiol (1995) 7:17-25].). All animal procedures and care techniques were approved by the Ben-Gurion University of the Negev Committee for the Ethical Care and Use of Animals in Research.
Mice were prepared for surgery by anesthetization with isoflurane and allowed to breathe spontaneously. Maintenance of adequate anesthesia for the experimental procedure was confirmed by loss of corneal reflexes. Once the corneal reflexes were abolished, a midline scalp incision was made and the scalp and underlying muscles were moved laterally. Closed head trauma (CHT) was delivered to the skull over the frontal portion of the left cerebral hemisphere. 1 minute after the trauma 100 μg of elastase inhibitor II or III in its vehicle (DMSO solution), were injected intracerebraspinaly by direct delivery into the cisterna magna. The vehicle itself was previously found to have no effect.
In addition to the wild type C57BL/6J mice, neutrophil elastase knockout mice strain B6.129X1-Elane were also examined. All procedures were approved by the Ethics Committee of Ben-Gurion University of Negev.

`COC(=O)CCC(=O)N[C@@H](C)C(=O)N[C@@H](C)C(=O)N1CCC[C@H]1C(=O)N[C@H](C(=O)CCl)C(C)C` [EI III, MeOSuc-AAPV-CMK] (MeOSuc-AAPV-CH2Cl) was tested, and the “KCN-induced necrotic cell death assessed by LDH release” value (PC12 cells) was “inhibited in a dose dependent manner”, the “inhibition of necrosis induced by KCN at high concentrations” value (PC12 cells; up to 300 μM) was “significantly inhibited necrosis” and the “effect of inhibitor by itself on PC-12 cells” value (PC12 cells; up to 300 μM, without KCN) was “inactive by themselves”. The “inhibition of necrosis-induced elastase-like activity” value (elastase-like activity; 100 μM) was “completely inhibited”, the “effect on elastase activity of control cells” value (elastase-like activity; 100 μM, control cells) was “slight effect” and the IC50 (elastase-like activity; lysates after 10 mM KCN 30 min, FIG. 3, read-out: IC50 of inhibition of necrosis-induced elastase-like activity) was 2.73 µM. For the same compound, the “induction of elastase-like enzymatic activity in intact cells” value (elastase-like activity; treatment of intact cells) was “abrogated the induction”, the “neurological severity score (NSS)” value ([1]; 100 μg into cisterna magna 1 min after trauma, 1 hour post injury) was “significantly reduce neurological damage” and the “space of necrotic tissue, TTC staining” value ([1]; 100 μg into cisterna magna, untreated traumatized 50%) was 25 % of the damaged hemisphere.

With `O=c1oc(-c2ccco2)nc2sc3c(c12)CCCC3` [4789-3852, 2-(furan-2-yl)-5,6,7,8-tetrahydro-4H-benzo[4,5]thieno[2,3-d][1,3]oxazin-4-one] the inhibition at 0.0001 µM (PC12 cells) was 18%, the inhibition at 0.001 µM (PC12 cells) was 25% and the inhibition at 0.01 µM (PC12 cells) was 55%. It also gave an inhibition at 0.1 µM (PC12 cells) of 61% and an inhibition at 1 µM (PC12 cells) of 81%.

For `CC1Cc2ccccc2N1S(=O)(=O)c1ccc(C(=O)O)cc1` (stereo not drawn) [D216-0746, 4-((2-methylindolin-1-yl)sulfonyl)benzoic acid], the inhibition at 0.0001 µM (PC12 cells) was 29%, the inhibition at 0.001 µM (PC12 cells) was 37% and the inhibition at 0.01 µM (PC12 cells) was 47%. For the same compound, the inhibition at 0.1 µM (PC12 cells) was 84% and the inhibition at 1 µM (PC12 cells) was 90%.

`Cc1[nH]c(=O)[nH]c(=O)c1S(=O)(=O)N1CCCCC1C` (stereo not drawn) [E214-0380, 6-methyl-5-((2-methylpiperidin-1-yl)sulfonyl)pyrimidine-2,4(1H,3H)-dione] gave an inhibition at 0.0001 µM (PC12 cells) of 18%, an inhibition at 0.001 µM (PC12 cells) of 21% and an inhibition at 0.01 µM (PC12 cells) of 39%. It also gave an inhibition at 0.1 µM (PC12 cells) of 51% and an inhibition at 1 µM (PC12 cells) of 83%.

`O=C(NCCNC(=O)c1nc(Cn2cc(Cl)cn2)no1)c1cccc(F)c1` [8019-5381, 3-((4-chloro-1H-pyrazol-1-yl)methyl)-N-(2-(3-fluorobenzamido)ethyl)-1,2,4-oxadiazole-5-carboxamide] showed an inhibition at 0.01 µM (PC12 cells) of 32%, an inhibition at 0.1 µM (PC12 cells) of 49% and an inhibition at 1 µM (PC12 cells) of 56%.

For `CCOC(=O)[C@H]1O[C@@H]1C(=O)N[C@@H](CC(C)C)C(=O)NCCC(C)C` [E-64d], the “effect on elastase-like proteolytic activity” value (elastase-like activity; lysates after 10 mM KCN 30 min, data not shown) was “no effect”.

Work on `O=C(N1CCN(c2nnc3ccc(Cl)cn23)CC1)C1(c2ccccc2)CC1` [T404-2346, (4-(6-chloro-[1,2,4]triazolo[4,3-a]pyridin-3-yl)piperazin-1-yl)(1-phenylcyclopropyl)methanone] yielded an inhibition at 0.1 µM (PC12 cells) of 42%.

With `Nc1ncc(S(=O)(=O)Nc2ccc(F)cc2F)cn1` [G830-0845, 2-amino-N-(2,4-difluorophenyl)pyrimidine-5-sulfonamide] the inhibition at 1 µM (PC12 cells) was 54%.

`CC(C)C(=O)Nc1ccc(Oc2ccc(NC(=O)C(C)C)cc2)cc1` [Y200-4083, N,N'-(oxybis(4,1-phenylene))bis(2-methylpropanamide)] was tested, and the “% protection at indicated concentration 0.1 nM” value (PC12 cells) was 11%, the “% protection at indicated concentration 1 nM” value (PC12 cells) was 25% and the “% protection at indicated concentration 10 nM” value (PC12 cells) was 32%. The “% protection at indicated concentration 100 nM” value (PC12 cells) was 49% and the “% protection at indicated concentration 1 μM” value (PC12 cells) was 74%.

With `CCC(CC)C(=O)N1CCN=C1N1CCCC1` [M059-0053, 2-ethyl-1-(2-(pyrrolidin-1-yl)-4,5-dihydro-1H-imidazol-1-yl)butan-1-one] the inhibition at 1 µM (PC12 cells) was 39%.

For `CC(C)C[C@H](NC(=O)N[C@H](C(=O)N[C@@H](CCC(N)=O)C(=O)N[C@@H](C)C=O)[C@@H]1CCNC(=N)N1)C(=O)O` [elastatinal, reference compound], the “KCN-induced necrotic cell death assessed by LDH release” value (PC12 cells) was “no protective effect”.

Compound `CNC(=O)c1n[nH]c2c1CCCCCC2` [Z632-6109, N-methyl-4,5,6,7,8,9-hexahydro-1H-cycloocta[c]pyrazole-3-carboxamide] has an inhibition at 0.0001 µM (PC12 cells) of 26%, an inhibition at 0.001 µM (PC12 cells) of 25% and an inhibition at 0.01 µM (PC12 cells) of 40%. It also gave an inhibition at 0.1 µM (PC12 cells) of 70% and an inhibition at 1 µM (PC12 cells) of 81%.

`Cc1ccnc(Nc2nc(-c3cc(C)c(C)cc3C)cs2)c1` [M008-0111, N-(4-methylpyridin-2-yl)-4-(2,4,5-trimethylphenyl)thiazol-2-amine] was tested, and the “% protection at indicated concentration 0.1 nM” value (PC12 cells) was 29%, the “% protection at indicated concentration 1 nM” value (PC12 cells) was 36% and the “% protection at indicated concentration 10 nM” value (PC12 cells) was 38%. The “% protection at indicated concentration 100 nM” value (PC12 cells) was 46%, the “% protection at indicated concentration 1 μM” value (PC12 cells) was 90% and the inhibition at 0.0001 µM (PC12 cells) was 29%. For the same compound, the inhibition at 0.001 µM (PC12 cells) was 36%, the inhibition at 0.01 µM (PC12 cells) was 38% and the inhibition at 0.1 µM (PC12 cells) was 46%. The inhibition at 1 µM (PC12 cells) was 90%.

`O=C(CC1CCCC1)N1CCN=C1N1CCCC1` [M059-0055, 2-cyclopentyl-1-(2-(pyrrolidin-1-yl)-4,5-dihydro-1H-imidazol-1-yl)ethanone] showed an inhibition at 1 µM (PC12 cells) of 68%.

Compound `O=C1C(NS(=O)(=O)c2ccc(Cl)s2)CCN1c1ccccc1` (stereo not drawn) [P316-0028, 5-chloro-N-(2-oxo-1-phenylpyrrolidin-3-yl)thiophene-2-sulfonamide] has an inhibition at 0.01 µM (PC12 cells) of 43%, an inhibition at 0.1 µM (PC12 cells) of 49% and an inhibition at 1 µM (PC12 cells) of 53%.

`CC(C)c1cc(C2CCCN2C(=O)C2CC2)no1` (stereo not drawn) [Z632-2266, cyclopropyl(2-(5-isopropylisoxazol-3-yl)pyrrolidin-1-yl)methanone] showed an inhibition at 0.0001 µM (PC12 cells) of 13%, an inhibition at 0.001 µM (PC12 cells) of 22% and an inhibition at 0.01 µM (PC12 cells) of 46%. For the same compound, the inhibition at 0.1 µM (PC12 cells) was 78% and the inhibition at 1 µM (PC12 cells) was 93%.

Work on `O=C(O)c1cccc(S(=O)(=O)N2CCCC2)c1` [3506-0172, 3-(pyrrolidin-1-ylsulfonyl)benzoic acid] yielded an inhibition at 0.01 µM (PC12 cells) of 18%, an inhibition at 0.1 µM (PC12 cells) of 19% and an inhibition at 1 µM (PC12 cells) of 52%.

With `CCN1CCN(C2=NCCN2C(=O)C2CCCC2)CC1` [M059-1012, cyclopentyl(2-(4-ethylpiperazin-1-yl)-4,5-dihydro-1H-imidazol-1-yl)methanone] the inhibition at 0.1 µM (PC12 cells) was 51%.

`CCOC(=O)CN1C(=O)c2ccccc2S1(=O)=O` [5149-0030, Ethyl-2,3-dihydro-3-oxo-1,2-benzisothiazole-2-acetate-1,1-dioxide] was tested, and the “% protection at indicated concentration 0.1 nM” value (PC12 cells) was 19%, the “% protection at indicated concentration 1 nM” value (PC12 cells) was 25% and the “% protection at indicated concentration 10 nM” value (PC12 cells) was 35%. The “% protection at indicated concentration 100 nM” value (PC12 cells) was 68%, the “% protection at indicated concentration 1 μM” value (PC12 cells) was 80% and the inhibition at 0.0001 µM (PC12 cells) was 19%. The inhibition at 0.001 µM (PC12 cells) was 25%, the inhibition at 0.01 µM (PC12 cells) was 35% and the inhibition at 0.1 µM (PC12 cells) was 68%. It also gave an inhibition at 1 µM (PC12 cells) of 80%.

— patent US11945787B2, “Substituted imidazoles for preventing and/or treating cell or tissue necrosis” (Ela Pharma Ltd, priority 2015, dated 2024)
